Data published in US11878003B2, “Composition comprising organoselenium compound for treatment of skeletal muscle atrophy” (Gwangju Institute of Science and Technology, priority 2021, dated 2024).
Like-named read-outs stand apart in the source and are kept apart here. Values belong to the compound of their own block, whether it stands above or below them.

Key:
[1] = system: C2C12 myoblasts; test: Myogenesis, myotube formation and morphology without dexamethasone; format: cell-based, mouse; details: for myotube formation and overall myotube diameters: 10 μM ebselen, 5 mM LiCl or 1.25 μM BIO, 24 hours
Procedure: (§1) Then, the myoblasts were treated with a differentiation medium (DMEM supplemented with 2% horse serum and PenStrep) for 72 hours so that the myoblasts were induced to differentiate into myotubes.
In differentiation cultures, myotubes were visualized by treatment with 50 nM MitoTracker Red CMX-Ros and […] DAPI in a differentiation medium at 37° C. for 30 minutes and imaged using a fluorescence microscope (Leica DMI3000B, Germany) as described above.
(§2) To evaluate myotube formation and atrophy, five microscopic fields of H&E-stained or MitoTracker Red CMX-Ros-stained cultures were randomly captured, and multinuclear myotube formation and diameters were calculated. Myotubes were designated as multinucleated cells containing three or more nuclei, and the diameters of myotubes were calculated using ImageJ 1.48 software (National Institutes of Health, Bethesda, MD, USA).

[2] = system: C2C12 myotubes; test: Dexamethasone-induced myotube atrophy, H&E morphology; format: cell-based, mouse; details: co-treatment with 10 μM dexamethasone; for average myotube diameter: 24 hours
Procedure: (§3) C2C12 myoblasts were seeded onto 6-well plates in a growth medium (GM). After reaching confluence, the cultures were treated with DM for 72 hours, and myotube atrophy was induced with DM containing 10 μM dexamethasone for 24 hours in the presence or absence of the drug of interest. Myotubes were visualized using hematoxylin and eosin staining according to a previously published protocol, and imaged with an optical microscope (Olympus CKX41, Japan). A myotube distribution was calculated by dividing the number of myotubes in each group by the total number of myotubes per image.
as §2

[3] = system: C2C12 myoblasts; test: MTT assay, myoblast viability; format: cell-based, mouse; details: for concentration at which cytotoxicity was not observed: MTT; for IC50: read-out: IC50, MTT assessment
Procedure: C2C12 mouse skeletal muscle progenitor cells (myoblasts) were grown in a growth medium including Dulbecco's Modified Eagle's Medium (DMEM) supplemented with 10% fetal bovine serum (FBS), 50 units/mL if penicillin, and […] of streptomycin (PenStrep).
(§4) Cell proliferation was evaluated through MTT (3-(4,5-dimethylthiazol-2-yl)-2,5-diphenyltetrazolium bromide) assay as described above. Myoblasts were seeded 3 times into 96-well plates at a density of 2×10^3 cells per well. A compound to be tested was added, followed by 48 hours of incubation, the medium was changed to an MTT solution (0.5 mg/mL, final concentration), and the plate was incubated in an incubator at 37° C., 5%, CO2 conditions. After 60 minutes of incubation, 50 μL of DMSO was added. Optical density in each well was measured at 570 nm using a microplate reader (VersaMax, Molecular Devices, USA). For myotube analysis, myoblasts were differentiated for […], the medium was supplemented with the compound of interest, 48 hours of incubation was additionally performed, and the cultures were assayed.

[4] = system: Atrogin-1, MuRF-1, FoxO3a expression; test: qPCR of atrophy genes in dexamethasone-treated myotubes; format: cell-based, mouse; details: for Atrogin-1 and FoxO3a expression: 10 μM dexamethasone 24 hours
Procedure: as §3
(§5) The transcription level of the gene was measured using a StepOnePlus Real Time PCR System (manufactured by Applied Biosystems, UK). cDNA was reverse transcribed from total RNA using an AccuPower RT PreMix (manufactured by Bioneer, USA). Real-time PCR was performed by modifying the manufacturer's instructions as follows.
(§6) PCR was performed three times using a total of 20 μL of 2×Power SYBR Green PCR Master Mix containing 200 nM of specific primers and 1 μL of cDNA. 10 minutes of incubation was performed at 95° C. prior to PCR amplification. The amplification consisted of 40 cycles of denaturation (for 15 seconds at 95° C.), annealing (for 1 minute at 60° C.), and extension (for 20 seconds at 72° C.). Extension and fluorescence detection were performed at 72° C. after each cycle. After the final cycle, melting point analysis was performed using continuous fluorescence detection on samples at a temperature in a range of 60° C. to 95° C. Specific cDNA samples were included in each run and used as a reference for comparison between runs. Expression levels of GAPDH were used for normalization and expression levels of all other genes were calculated.

[5] = system: C2C12 myotubes; test: MTT assay and microscopy, myotube viability; format: cell-based, mouse
Procedure: as §1, §4

[6] = system: C2C12 myotubes; test: SUnSET assay of protein synthesis; format: cell-based, mouse
Procedure: Surface sensing translation (SUnSET) assay was performed as described above. Briefly, 1 μg/mL puromycin was added to the culture and the harvest was lysed after 10 minutes. For immunoblotting, the myotube extract was treated with anti-puromycin 12D10 antibody (MABE343; Millipore).

[7] = system: IMPase; test: IMPase activity assay in myotubes (myo-inositol assay kit); format: cell-based, mouse; details: 10 μM dexamethasone
Procedure: IMPase activity in cells and tissues was measured using a myo-inositol assay kit (Megazyme, Ireland) according to the manufacturer's instructions. The cell […] was sonicated in PBS for 90 seconds with a 30-second on and 15-second off cycle (Vibra-Cell, USA) as described above, and then centrifuged at 13,000×g for 15 minutes as described above. Thus, the supernatant was prepared.

[8] = system: C57BL/6J mice; test: Skeletal muscle atrophy dexamethasone model; format: in vivo, mouse
Procedure: 13-week-old male C57BL/6J mice were treated with drugs as follows: • 1) Injection of vehicle (4% hydroxypropyl-β-cyclodextrin) alone; • 2) 15 mg/kg of dexamethasone dissolved in vehicle; • 3) 15 mg/kg of dexamethasone and 1 mg/kg of ebselen; and • 4) Injection of 15 mg/kg dexamethasone and 3 mg/kg ebselen (n=5 per group).
The muscle condition was evaluated after intraperitoneal injection daily for 14 days with the same drug as above.
A grip strength of each mouse was recorded using a BIO-GS3 (Bioseb, USA). To measure the grip strength, mice were placed on a metal grid to grip the metal grid with four paws and were gently pulled back until the mice were unable to continue holding the grid. Muscle strength was expressed using the maximum value obtained from three trials at 1-minute intervals.
Mice were placed in the center of a grid, and it was made sure that the grid was gripped by the limbs of the mice. Next, the grid was turned over and hung at a height of 50 cm above a baseline, and the hanging time was measured up to 10 minutes.
In the case of the dexamethasone-induced atrophy model, the quadriceps, gastrocnemius and splenic muscles were dissected and weighed. The quadriceps were stained with H&E according to the same protocol used for the glycerol test and used for histological analysis.

[9] = system: human skeletal myoblasts; test: Dexamethasone atrophy in human skeletal myotubes; format: cell-based; details: 24 hours
Procedure: Human skeletal myoblasts were purchased from Thermo-Fisher Scientific. Myoblasts were thawed in a water bath, washed with […], and centrifuged at 180 g for 5 minutes at room temperature. Next, myoblasts were resuspended in DM and seeded in a 12-well plate at a density of 4.8×10^4 cells/well. After 72 hours, the myoblasts were treated with a compound for 24 hours. The myotube diameter was measured by optical microscopy analysis of DIC captured images (Olympus CKX41).

[10] = system: FoxO3a; test: Immunocytochemistry of FoxO3a in myotubes; format: cell-based, mouse
Procedure: Myoblasts were differentiated into myotubes in 6 well plates. The myotubes were then immunostained for FoxO3a (Cell Signaling Technology, dilution of 1:400). Alexa Fluor 488 goat anti-mouse IgG was used as a secondary antibody (manufactured by Invitrogen). Nuclei were stained using DAPI solution (1 μM dissolved in third distilled water). Staining was visualized by fluorescence microscopy (Leica DMI3000 B).

[11] = system: C57BL/6J mice; test: Skeletal muscle degenerative glycerol model; format: in vivo, mouse
Procedure: The glycerol infusion protocol was used to induce muscle degeneration. Male C57BL/6J mice were anesthetized with PBS containing ketamine (22 mg/kg; Yuhan, Republic of Korea) and xylazine (10 mg/kg; Bayer, Republic of Korea), 100 μL glycerol (50% vol/vol) was injected into unilateral gastrocnemius muscle and splenic muscle.
The mice were treated with vehicle (0.5% methyl cellulose) or with vehicle+ebselen (30 mg/kg) via oral gavage every 24 hours (n=6 per group). A muscle fatigue test was performed after 5 days.
Muscle fatigue was measured using a known protocol (Chiu, et al.). In summary, mice were trained prior to initiating the fatigue task using an accelerated Rotarod (Ugo Basile, Italy). Mice were trained with a Rotarod at a constant speed of 13 rpm for 15 minutes. After 15-minute recovery, mice were placed on a Rotarod adapted to accelerate to 13 to 25 rpm within 3 minutes, for 15 minutes. After 24 hours, the muscle fatigue test was performed with a ramping rate of 13 to 25 rpm within 3 minutes and held at 25 rpm for 30 minutes. For each mouse, a delay time falling from the Rotarod was measured. Mice being tiered were classified as falling 4 times within 1 minute and the test was stopped.
Before sacrificing the mice, the mice were anesthetized by intraperitoneal injection of PBS containing ketamine (22 mg/kg; Yuhan Corporation, Korea) and xylazine (10 mg/kg; Bayer, Korea). After sacrificing the mice, the gastrocnemius and splenic muscles of the glycerol injury model were dissected and weighed. For histological analysis, the muscles were incubated overnight with 4% paraformaldehyde at 4° C., fixed, and embedded in paraffin. 5-μm muscle sections were obtained and was stained with H&E using a kit according to the manufacturer's instructions (Merck & Co., USA). Damaged areas and cross-sectional areas were measured using ImageJ 1.48 software (National Institutes of Health).

[12] = system: Pax7, Myf5, MyoG, Myh2 expression; test: qPCR of myogenic markers in differentiating myoblasts; format: cell-based, mouse; details: differentiation medium, 100 mM myo-inositol
Procedure: as §5, §6

[13] = 100 mM myo-inositol, no dexamethasone

Compound: 6-Bromoindirubin-3-oxime [BIO]
- myotube formation and overall myotube diameters [1]: inhibited myotube formation

Compound: CC(Oc1ccc(O)cc1)(P(=O)(O)O)P(=O)(O)O [L-690,330, [1-(4-hydroxyphenoxy)-1-phosphonoethyl]phosphonic acid]
- proportion of larger diameter myotubes [2]: larger diameter myotubes were observed
- average myotube diameter [2]: increased
- concentration at which cytotoxicity was not observed [3]: up to 50 μM
- FoxO3a expression ([4]; 10 μM dexamethasone): inhibited the up-regulation

Compound: [Cl-].[Li+] [LiCl]
- number of observable myotubes ([5]; microscopic observation, 50 mM LiCl): reduced
- proportion of larger diameter myotubes [2]: larger diameter myotubes were observed
- average myotube diameter [2]: increased
- IC50 ([3]; 48 hours): 19.9 mM
- concentration at which cytotoxicity was not observed [3]: up to 5 mM
- FoxO3a expression ([4]; 10 μM dexamethasone): inhibited the up-regulation
- myotube formation and overall myotube diameters [1]: enhanced myotube formation and increased overall myotube diameters

Compound: O=C1c2ccccc2[Se](=O)N1c1ccccc1 (centres unmarked) [ebselen oxide]
- Atrogin-1 and FoxO3a expression [4]: inhibited the expression

- IMPase activity [7]: effective in inhibiting IMPase activity
Compound: O=c1c2ccccc2[se]n1-c1ccccc1 [ebselen]
- protein synthesis ([6]; alone or with dexamethasone): effective in increasing protein synthesis
- protein synthesis ([6]; dexamethasone-treated myotubes): increased
- average myotube diameter [2]: did not show a decrease
- body weight ([8]; 15 mg/kg dexamethasone with ebselen, i.p. daily 14 days, vs untreated mice): significant weight loss
- quadriceps mass ([8]; 15 mg/kg dexamethasone, 1 or 3 mg/kg ebselen, i.p. daily 14 days): recovered
- hanging time ([8]; inverted hanging test, vs dexamethasone-treated mice): significantly enhanced
- IMPase activity ([8]; quadriceps): inhibitory effect of ebselen on IMPase activity was confirmed
- muscle fiber cross-sectional area ([8]; quadriceps, histology): increased
- ratio of larger fibers ([8]; quadriceps, histology): increased
- expression of Atrogin-1 and Murf-1 ([8]; quadriceps, qPCR): effectively reduced
- grip strength ([8]; vs dexamethasone-treated mice): significantly enhanced
- myotube diameter and proportion of large diameter myotubes [9]: inhibited the effect of dexamethasone
- concentration at which cytotoxicity was not observed [3]: ≤ 10 µM
- IC50 ([3]; Mus musculus, C2C12, 48 hours): 0.0224 mM
- Atrogin-1 and FoxO3a expression [4]: inhibited the up-regulation
- FoxO3a up-regulation caused by dexamethasone [10]: inhibited
- myotube formation and overall myotube diameters [1]: enhanced myotube formation and increased overall myotube diameters
- proportion of larger diameter myotubes ([1]; no dexamethasone): significantly increased
- body weight ([11]; 30 mg/kg ebselen, oral gavage every 24 hours): no significant difference
- concentration of myo-inositol ([11]; gastrocnemius muscle damaged by glycerol): decreased
- expression of Atrogin-1 and Murf-1 ([11]; gastrocnemius, qPCR): effectively reduced
- gastrocnemius muscle mass ([11]; glycerol-injected muscle): increased
- mass loss of splenic muscle ([11]; glycerol-injected splenic muscle): significantly inhibited
- damaged area ([11]; histology, H&E): reduced
- fiber cross-sectional area ([11]; histology, H&E): larger
- gastrocnemius mass ([11]; non-injected muscles, oral ebselen): did not affect

Compound: O[C@H]1[C@H](O)[C@@H](O)[C@H](O)[C@@H](O)[C@H]1O [myo-inositol]
- protein synthesis ([6]; alone or with dexamethasone): decreased
- cytotoxicity ([5]; myotubes, 500 mM, 48 hours): significant cytotoxicity
- concentration without cytotoxicity / effect on cell viability ([5]; myotubes, MTT, 48 hours): below 250 mM
- myotube length [2]: significantly reduced
- average myotube diameter [2]: significantly reduced
- expression of MyoG and Myh2 [12]: reduced
- expression of Pax7 and Myf5 [12]: increased
- expression of atrogin-1, MuRF-1 and FoxO3a ([4]; 10 μM dexamethasone, 100 mM myo-inositol): further increased
- average myotube diameter [1, 13]: decreased
- average myotube length [1, 13]: decreased
- myotube morphology ([1]; 100 mM, 48 hours, H&E): induced shortened and narrower myotubes
- number of immature myotubes ([1]; DM with 100 mM myo-inositol, 48 hours): reduced
- proportion of larger diameter myotubes ([1]; no dexamethasone): reduction
